Laboratory results taken from publication PMC11077991, “The small molecule CBR-5884 inhibits the Candida albicans phosphatidylserine synthase” (mBio, 2024).

How the values were obtained:
[1] = tested on: wild-type C. albicans cell wall β(1-3)-glucan exposure; assay: fluorescence imaging of unmasked β(1-3)-glucan; type: cell-based, Candida albicans; settings: 170 µM, YPD
Description: Wild-type and cho1ΔΔ cells were grown in YPD overnight (~16 h), and back diluted to fresh YPD with OD600 of ~0.1. The cells were then shaken at 225 rpm for 3 h before 170 µM CBR-5884 or equivalent DMSO were added. The cells were further shaken for 30, 60, 120 min before staining with anti-β(1-3)-glucan antibody. The cells were stained as previously described ([57], [97]) with the exception that goat anti-mouse antibody conjugated to Alexa Fluor 488 (Jackson ImmunoResearch) was used as the secondary antibody. For imaging, Candida cells were resuspended in 200 µL of Fluoromount-G mounting medium and visualized with a Leica SP8 white light laser confocal microscope. The pictures were taken through Leica Application Suite X office software and quantified as described above.

[2] = type: physicochemical; settings: 12 h, 170 µM
Description: However, it was observed that the impact of CBR-5884 on cell growth was only temporary, with a delay lasting 12 h. […] To disentangle these two possibilities, experiments were conducted where both CBR-5884 and DMSO were subjected to 12 h of agitation at 30°C before being introduced to live cells. The growth of these cells was monitored over the next 14 h, with an OD600 measurement every 2 h, to assess the persistence of CBR-5884’s efficacy (Fig. 4F); in the meantime, cells that had been grown in 170 µM CBR-5884 for 12 and 24 h were transferred into fresh media containing new CBR-5884, which was allowed to grow for another 14 h, to probe the rising of resistance (Fig. 4G). In both experimental setups, cells grew slowly in the presence of CBR-5884 compound compared to DMSO control.
The growth curves with LOC14 and CBR-5884 treatments were measured from 2 to 30 h with OD600 measurements every 2 h. A final concentration of 170 µM CBR-5884, 430 µM LOC14, and 5 mM serine was added into each group as indicated. To test the stability of CBR-5884, minimal medium supplemented with 170 µM CBR-5884 or equivalent DMSO was agitated for 12 h before the introduction of wildtype C. albicans SC5314 strain, and growth curves were recorded from 0 to 14 h with OD600 measurement every 2 h. […] The growth curves were recorded from 0 to 14 h with OD600 measurement every 2 h. […]

[3] = tested on: phospholipid levels in C. albicans; assay: thin-layer chromatography of phospholipids; type: cell-based, Candida albicans; settings: 170 µM, 2 h
Description: Wild-type SC5314 and cho1ΔΔ strains grown overnight in YPD were inoculated into fresh YPD at OD600 of 0.1 and were shaken for another 3 h. Then, 170 µM CBR-5884 or equivalent DMSO solvent was added to both wild-type and cho1ΔΔ cultures, and cells were shaken for another 2 h. Then, cells were washed with 1× PBS three times and normalized to a total OD600 of 1. The phospholipids were extracted with the hot ethanol method as described in reference ([14]). A Whatman 250 µm silica gel aluminum backed plate was treated, and separation of phospholipids was carried out as described in reference ([100]). Phospholipid standards PI, PE, PS, and PC were purchased from Avanti. The quantification of the phospholipids was done in ImageJ software.

[4] = target: purified hexameric Cho1 (Candida albicans, UniProt A0A1D8PF32); assay: kinetic curves of purified hexameric Cho1 (radioactive PS synthase assay); type: biochemical
Description: For the kinetic curves, the specific activity was measured in the reaction containing 50 mM Tris-HCl (pH 8.0), 1 mM MnCl2, 0.025%–0.3% Triton X-100 and 0.033%–0.07% digitonin with 0.75–1.5 µg purified Cho1 protein. The concentrations of 18:1 CDP-DAG (Avanti, cat# 870520) and serine are indicated in the graphs, and the mol % of CDP-DAG was kept between 4.2% and 5.0% for the curve where CDP-DAG was varied (Fig. 6C and D) and at 4.8% (200 μM) for the curve where serine was varied (Fig. 6B). The concentrations of CBR-5884 used in each reaction are indicated in the graph, and CBR-5884 was incubated with purified Cho1 protein in the presence of CDP-DAG on ice for at least 2 h before the addition of L-[^3H]-serine. The reaction was stopped at 20, 40, and 60 min, and specific activity was calculated based on the slope of linear PS production, representing the initial velocity.

[5] = tested on: cho1ΔΔ strain; assay: growth of cho1ΔΔ strain in rich YPD media; type: cell-based, Candida albicans
[6] = precipitation in MIC media; type: physicochemical
[7] = tested on: purified Cho1; assay: CBR-5884 washout assay (radioactive PS synthase assay); type: biochemical, Candida albicans; settings: 100 µM preincubated 2 h, buffer exchange
Description: For CBR-5884 washout assays, purified Cho1 was incubated with CBR-5884 at a final concentration of 100 µM, or equivalent DMSO, in 100 µL volume on ice for 2 h. The CBR-5884 was then washed out by exchanging with 4 mL 50 mM Tris-HCl at pH 8.0 and 0.1% digitonin three times in the Amicon Ultra Centrifugal Filter (10 kDa MWCO). The sample was concentrated to the volume of approximately 500 µL, and protein concentration was determined using the Pierce detergent-compatible Bradford assay kit. The reaction was set up with 50 mM Tris-HCl (pH 8.0), 1 mM MnCl2, 0.1% Triton X-100, 0.1% digitonin, 0.1 mM (4.7 mol %), 16:0 CDP-DAG (Avanti, cat# 870510), and 10 mM L-serine [spiked with 5% (by volume) L-[3H]-serine (15 Ci/mmol)] at a total volume of 100 µL, in the presence of 100 µM CBR-5884 or equivalent DMSO solvent. The reaction was stopped at 20, 40, and 60 min, and specific activity was calculated based on the slope of linear PS production, representing the initial velocity.

[8] = tested on: cancer cell lines with high serine biosynthetic activity (melanoma and breast cancer lines); design: method as in PMID 26831078; settings: cited from earlier work
[9] = tested on: C57BL/6 j mice; design: method as in PMID 25848045; settings: high dose of 20 mg/kg; cited from earlier work

Sequence of purified hexameric Cho1 (A0A1D8PF32 entry or part of it): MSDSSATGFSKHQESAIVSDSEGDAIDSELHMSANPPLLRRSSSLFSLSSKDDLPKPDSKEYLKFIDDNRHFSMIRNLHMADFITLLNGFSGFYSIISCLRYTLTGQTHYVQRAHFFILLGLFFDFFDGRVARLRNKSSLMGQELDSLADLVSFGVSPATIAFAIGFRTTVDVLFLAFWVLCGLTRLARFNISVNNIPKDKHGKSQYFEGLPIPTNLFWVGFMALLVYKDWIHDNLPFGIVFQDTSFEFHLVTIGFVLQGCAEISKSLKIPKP

CCOC(=O)c1sc(NC(=O)c2ccco2)c(SC#N)c1C [CBR-5884]
β(1-3)-glucan unmasking vs wild-type in DMSO ([1]; 30-min treatment): significantly increased unmasking | β(1-3)-glucan unmasking vs cho1ΔΔ mutant ([1]; 120-min treatment): more unmasking than the cho1ΔΔ mutant | stability and effectiveness under agitation [2]: at least 12 h | PI levels [3]: not strongly affected | relative PS level in wild-type strain vs DMSO [3]: significantly dropped | relative PE levels ([3]; wild-type and cho1ΔΔ): significantly decreased | Ki [4]: 1.55 µM | inhibition of Cho1 activity at sub-saturating serine ([4]; serine 20 mM, CDP-DAG 25-300 µM): observed | inhibition of Cho1 activity at saturating serine ([4]; serine 32 mM, CDP-DAG varied): inhibition was overcome | pattern of inhibition ([4]; serine varied, CDP-DAG 200 µM): competitive inhibition | growth of the cho1ΔΔ strain [5]: decreases growth | solubility in MIC media [6]: precipitated at high concentrations | inhibition after preincubation and washout [7]: absence of inhibition | toxicity to cancer cell lines [8]: selectively toxic

O=C(C1CC1)N1CCN(Cn2sc3ccccc3c2=O)CC1 [LOC14]
tolerability [9]: well tolerated
